For data set [1], the system named is U138-MG human glioma cell. As to the kind of experiment: Cell proliferation analysis (MTT). The format is cell-based. The following applies: 10 µM, two days, MTT; for activity at 10 µM / inhibition at 10 µM: Homo sapiens, 48 h.
The next data set relates to U87-MG human glioma cell. In words: Cell proliferation analysis (MTT). In kind it is cell-based. The following applies: for activity at 10 µM / inhibition at 10 µM: Homo sapiens, U-87 MG, 48 h.
Data set [2] can be described thus: PAMPA permeability assay, gastrointestinal mimicking membrane. Conditions: 500 µM, 18 hours, 37 °C.
Protocol: Permeability assay and analyses were performed according to the manufacturer's instructions. […] After the loading of lipid solutions into the pores, all drug solutions and the permeability controls were put onto the lipid membrane in donor wells. The permeability assay was performed for 18 hours at 37 °C incubator. All samples were collected from acceptor wells after the incubation period was finished and the absorbance values were measured with equilibrium standards for normalization.
The next data set deals with GBM xenograft rat model. In words: In vivo GBM rat model: MRI analysis of tumor volumes. The following applies: GBM rats, 30 mg/kg oral, 5 days, MRI 14th vs 28th day. The method, then:
An in Vivo study was performed to assess the therapeutic potential of TR-G002, TR-G045, TR-G053, TR-G066, TR-G071 and TR-G091 in the GBM xenograft rat model when administered orally by gavage for five consecutive days. 152 female rats of the Sprague Dawley strain were allocated to the study. Six groups of sixteen females were given dose of 30 mg/kg of the respective target compounds. […] The study design can be seen in Fig. 11 and Table 10.
Female Sprague Dawley rats (age: 6-8 weeks; weight: 255-310 g; ATADEM, Erzurum, Turkey) were utilized in the study. Rats underwent anaesthesia with 5% isoflurane, maintained at 2% isoflurane (1 L/min oxygen), and were positioned in a stereotactic frame for cell implantation (Stoelting Co., IL). […] A burr hole was drilled 1-mm anterior and 3-mm lateral to the right bregma. A microsyringe (Hamilton 1700 series) containing 5×10^4 U87-MG cells suspended in 5 µL of medium at 37 °C was advanced to a depth of 4 mm into the brain. The cells were injected at a rate of 3 µL/ min. Bone wax was used to fill the burr hole to prevent cell suspension reflux. The incision was sutured, and 1 mL of Meloxicam (5 mg/mL; Metacam, Boehringer Ingelheim Vetmedica, Ingelheim, Germany) was administered via a subcutaneous injection.
Fourteen days after inoculation, tumor development in rats was visualized and confirmed through magnetic resonance imaging (MRI). Rats confirmed to have developed tumors were then distributed into six different groups for treatment. […] 9 days after the final treatment dose, the rats underwent another MRI scan and blood and brain samples were taken under anaesthesia.
The anaesthetic was administered via an intraperitoneal route on animals fixed in the supine position with parallel hind limbs. MRI was performed using a 3 Tesla clinical scanner (Magnetom Skyra; Siemens Healthineers, Erlangen, Germany). Rats were placed in the prone position. T2-SPACE (sampling perfection with application-optimized contrast using different flip angle Evolution) sequence was obtained to view the brain in coronal and transverse planes. (TR: 6000 ms, TE: 100 ms, voxel size: 0.5 × 0.5 × 1 mm, 34 slices, slice thickness: 2 mm, slice spacing: 0.6 mm). The volume measurements of brain tumors were performed manually. One radiologist calculated the tumour volume - manually measuring tumour length (L), width (W), and height (H) - and then calculated the tumour volume using the formula 0.5236 × L × W × H (Stuppner S et al., 2020).

We go through 21 compounds from patent EP4644375A1, “SUBSTITUTED HYDROQUINOLINES FOR THE TREATMENT OF GLIOBLASTOMA MULTIFORME” (Molius Saglik Teknolojileri Anonim Sirketi, priority 2024, dated 2025).

For orientation: inhibition means the relative decrease from the control value, in per cent.

On to `CN(C(=O)Oc1ccc2c(c1)CCC(=O)N2)c1ccccc1` [TR-G072, 2-oxo-1,2,3,4-tetrahydroquinolin-6-yl methyl(phenyl)carbamate], for which, in data set [1], the activity at 10 µM was determined as 85% and the inhibition at 10 µM amounted to 15%. Besides, in the data set on U87-MG human glioma cell (10 µM, two days, MTT), the activity at 10 µM is 85% and the inhibition at 10 µM was 15%. The “permeability through the gastrointestinal mimicking membrane” value in data set [2] is recorded as “highly permeable”.
Turning to `O=C(COc1ccc2c(c1)CCC(=O)N2)NN=Cc1cccs1` [TR-G024, 2-((2-oxo-1,2,3,4-tetrahydroquinolin-6-yl)oxy)-N'-(thiophen-2-ylmethylene)acetohydrazide], in data set [1], the activity at 10 µM is 70% and the inhibition at 10 µM amounted to 30%. In the data set on U87-MG human glioma cell (10 µM, two days, MTT), the activity at 10 µM is 80% and the inhibition at 10 µM is 20%. Also, the “permeability through the gastrointestinal mimicking membrane” value in data set [2] is given as “highly permeable”.
For `O=C1CCc2cc(OS(=O)(=O)c3ccc([N+](=O)[O-])cc3)ccc2N1` [TR-G046, 2-oxo-1,2,3,4-tetrahydroquinolin-6-yl 4-nitrobenzenesulfonate], the activity at 10 µM in data set [1] came out at 76%; in the data set with U87-MG human glioma cell (10 µM, two days, MTT), 60%. Also, the inhibition at 10 µM in data set [1] turned out to be 24%; with U87-MG human glioma cell (10 µM, two days, MTT), 40%. For the same compound, the tumor size result in the data set with GBM xenograft rat model is “reduced the tumor size”.
In the case of `O=C1CCc2cc(OC(=O)c3ccc(CCl)cc3)ccc2N1` [TR-G065, 2-oxo-1,2,3,4-tetrahydroquinolin-6-yl 4-(chloromethyl)benzoate], in data set [1], the activity at 10 µM worked out at 90% and the inhibition at 10 µM worked out at 10%. For the same compound, in the data set on U87-MG human glioma cell (10 µM, two days, MTT), the activity at 10 µM worked out at 73% and the inhibition at 10 µM came out at 27%.
With `O=C1CCc2cc(OCCCCc3nnnn3C3CCCCC3)ccc2N1Cc1ccc(F)cc1` [TR-G112, 6-(4-(1-cyclohexyl-1H-tetrazol-5-yl)butoxy)-1-(4-fluorobenzyl)-3,4-dihydroquinolin-2(1H)-one], in data set [1], the activity at 10 µM stood at 43% and the inhibition at 10 µM is 58%. For the same compound, in the data set with U87-MG human glioma cell (10 µM, two days, MTT), the activity at 10 µM stood at 60% and the inhibition at 10 µM stood at 41%.
In the case of `CC(C)(C)c1ccc(COc2ccc3c(c2)CCC(=O)N3)cc1` [TR-G030, 6-((4-(tert-butyl)benzyl)oxy)-3,4-dihydroquinolin-2(1H)-one], in data set [1], the activity at 10 µM worked out at 63% and the inhibition at 10 µM stood at 38%. In addition, in the data set on U87-MG human glioma cell (10 µM, two days, MTT), the activity at 10 µM was determined as 53% and the inhibition at 10 µM is 47%.
For `O=C1CCc2cc(OC(=O)CCl)ccc2N1` [TR-G016, 2-oxo-1,2,3,4-tetrahydroquinolin-6-yl 2-chloroacetate], in that order: 95%, 5%, 78% and 22%.
As to `O=C1CCc2cc(OC(=O)c3cccc(F)c3)ccc2N1` [TR-G139, 2-oxo-1,2,3,4-tetrahydroquinolin-6-yl 3-flurobenzoate], in data set [1], the activity at 10 µM came to 83% and the inhibition at 10 µM was determined as 17%. In the data set on U87-MG human glioma cell (10 µM, two days, MTT), the activity at 10 µM was found to be 71% and the inhibition at 10 µM stood at 29%.
`CCCc1ccc(/C=N/NC(=O)COc2ccc3c(c2)CCC(=O)N3)cc1` [TR-G028, (E)-2-((2-oxo-1,2,3,4-tetrahydroquinolin-6-yl)oxy)-N'-(4-propylbenzylidene)acetohydrazide]: in data set [1], the activity at 10 µM is 106% and the inhibition at 10 µM is -6%. Moreover, in the data set on U87-MG human glioma cell (10 µM, two days, MTT), the activity at 10 µM came to 64% and the inhibition at 10 µM was found to be 36%.
Take `O=C1CCc2cc(OC(=O)c3cc(C(F)(F)F)ccc3F)ccc2N1` [TR-G036, 2-oxo-1,2,3,4-tetrahydroquinolin-6-yl 2fluoro-5-(trifluoromethyl)benzoate]: in data set [1], the activity at 10 µM is 81% and the inhibition at 10 µM is 19%. For the same compound, in the data set on U87-MG human glioma cell (10 µM, two days, MTT), the activity at 10 µM came out at 68% and the inhibition at 10 µM is 32%.
In the case of `O=C(COc1ccc2c(c1)CCC(=O)N2)N/N=C/c1cccc(Oc2ccc(Cl)cc2)c1` [TR-G138, (E)-N'-(3-(4-chlorophenoxy)benzylidene)-2-((2-oxo-1,2,3,4-tetrahydroquinolin-6-yl)oxy)acetohydrazide], the inhibition at 10 µM is 35% in data set [1] and 50% in the data set with U87-MG human glioma cell (10 µM, two days, MTT).
For `Cc1cn(-c2cc(NC(=O)COc3ccc4c(c3)CCC(=O)N4)cc(C(F)(F)F)c2)cn1` [TR-G054, N-(3-(4-methyl-1H-imidazol-1-yl)-5-(trifluoromethyl)phenyl)-2-((2-oxo-1,2,3,4-tetrahydroquinolin-6-yl)oxy)acetamide], in data set [1], the activity at 10 µM is 79% and the inhibition at 10 µM amounted to 21%. Besides, in the data set with U87-MG human glioma cell (10 µM, two days, MTT), the activity at 10 µM turned out to be 84% and the inhibition at 10 µM was 16%.
Consider `CC(C)N(C(=O)Oc1ccc2c(c1)CCC(=O)N2)C(C)C` [TR-G129, 2-oxo-1,2,3,4-tetrahydroquinolin-6-yl diisopropylcarbamate], for which, in data set [1], the activity at 10 µM came out at 74% and the inhibition at 10 µM came to 26%. For the same compound, in the data set with U87-MG human glioma cell (10 µM, two days, MTT), the activity at 10 µM came to 81% and the inhibition at 10 µM is 19%.
On to `CCOC(=O)COc1ccc2c(c1)CCC(=O)N2` [TR-G012, ethyl 2-((2-oxo-1,2,3,4-tetrahydroquinolin-6-yl)oxy)acetate], for which, in data set [1], the activity at 10 µM was 85% and the inhibition at 10 µM is 15%. Besides, in the data set with U87-MG human glioma cell (10 µM, two days, MTT), the activity at 10 µM worked out at 71% and the inhibition at 10 µM turned out to be 29%.
For `CS(=O)(=O)Oc1ccc2c(c1)CCC(=O)N2` [TR-G057, 2-oxo-1,2,3,4-tetrahydroquinolin-6-yl methanesulfonate], in that order: 99%, 1%, 85% and 15%.
Turning to `O=C1CCc2cc(OCC3CC(c4ccc(F)cc4)=NO3)ccc2N1` (centres unmarked) [TR-G051, 6-((3-(4-fluorophenyl)-4,5-dihydroisoxazol-5-yl)methoxy)-3,4-dihydroquinolin-2(1H)-one], in data set [1], the activity at 10 µM is 67% and the inhibition at 10 µM is 33%. In the data set on U87-MG human glioma cell (10 µM, two days, MTT), the activity at 10 µM came out at 79% and the inhibition at 10 µM came out at 21%.
For `CCOC(=O)CCn1cc(COc2ccc3c(c2)CCC(=O)N3)nn1` [TR-G079, ethyl 3-(4-(((2-oxo-1,2,3,4-tetrahydroquinolin-6-yl)oxy)methyl)-1H-1,2,3-triazol-1-yl)propanoate], in that order: 112%, -12%, 94% and 6%.
For `O=C1CCc2cc(OCc3cc(-c4c(F)cccc4Cl)no3)ccc2N1` [TR-G116, 6-((3-(2-chloro-6-fluorophenyl)isoxazol-5-yl)methoxy)-3,4-dihydroquinolin-2(1H)-one], in data set [1], the “Cell Proliferation (%)” value was 59% and the inhibition at 10 µM came out at 41%. In addition, in the data set with U87-MG human glioma cell (10 µM, two days, MTT), the “Cell Proliferation (%)” value stood at 93% and the inhibition at 10 µM was found to be 7%.
Turning to `O=C1CCc2cc(OCC3CC(c4ccc(Cl)cc4)=NO3)ccc2N1` (centres unmarked) [TR-G070, 6-((3-(4-chlorophenyl)-4,5-dihydroisoxazol-5-yl)methoxy)-3,4-dihydroquinolin-2(1H)-one], in data set [1], the activity at 10 µM is 79% and the inhibition at 10 µM stood at 21%. In addition, in the data set with U87-MG human glioma cell (10 µM, two days, MTT), the activity at 10 µM worked out at 68% and the inhibition at 10 µM is 33%.
With `COc1ccc(C(=O)Oc2ccc3c(c2)CCC(=O)N3)c(OC)c1` [TR-G009, 2-oxo-1,2,3,4-tetrahydroquinolin-6-yl 2,4-dimethoxybenzoate], in data set [1], the activity at 10 µM is 87% and the inhibition at 10 µM was 13%. In the data set on U87-MG human glioma cell (10 µM, two days, MTT), the activity at 10 µM turned out to be 72% and the inhibition at 10 µM was 28%.
Consider `C=CCN1C(=O)CCc2cc(OCCCCc3nnnn3C3CCCCC3)ccc21` [TR-G103, 1-allyl-6-(4-(1-cyclohexyl-1H-tetrazol-5-yl)butoxy)-3,4-dihydroquinolin-2(1H)-one], for which, in data set [1], the activity at 10 µM was 63% and the inhibition at 10 µM turned out to be 38%. Also, in the data set with U87-MG human glioma cell (10 µM, two days, MTT), the activity at 10 µM was 45% and the inhibition at 10 µM was 55%. Besides, in the data set with U87-MG human glioma cell (ranking), the “top 5 target compounds whose treatment resulted in the lowest proliferation” value was “top 5”.
